{"source": "patent US20050004179A1", "about": "“Methods and materials for treating, detecting, and reducing the risk of developing Alzheimer's Disease” (priority 2003, published 2005)", "key": {"Tg2576 mice [1]": {"tested_on": "Tg2576 mice", "assay": "Insulin response: insulin-induced decline in blood glucose levels", "format": "in vivo, mouse", "text": "(§1) Male Tg2576 mice and non-transgenic littermates were purchased from Taconic Farms (Germantown, N.Y.). The Tg2576 mice overexpress the 695-isoform of the human amyloid precursor protein containing a double mutation originally identified in a large Swedish kindred (familial AD); spatial learning and memory deficits are evident at 9-11 months of age, prior to the formation of mature amyloid plaques (Kawarabayashi et al., “Age-Dependent Changes in Brain, CSF, and Plasma Amyloid β Protein in the Tg2576 Transgenic Mouse Model of Alzheimer's Disease,” J. Neurosci., 21:372-381 (2001) and Westerman et al., “The Relationship Between Aβ and Memory in the Tg2576 Mouse Model of Alzheimer's Disease.,” J. Neurosci., 22:1858-1867 (2002), which are hereby incorporated by reference). Mice were individually housed in ventilated microisolator cages.\nInsulin was administered and glucose was measured using the following procedures. A stock of human insulin (recombinant, 28.7 U.S.P. units/mg; Sigma) was prepared by dissolving 1 mg of powder in 1 ml of dH20 containing 1% glacial acetic acid. A 1:150 dilution in dH20 was used as the injection stock. Mice were administered the insulin solution by intraperitoneal injection. […]\nInsulin was administered to non-fasted Tg2576 and wild-type mice at 0.75 U/kg, and blood glucose levels were monitored. […]"}, "Tg2576 mice [2]": {"tested_on": "Tg2576 mice", "assay": "Stress response: serum corticosterone after overnight fasting", "format": "in vivo, mouse", "conditions": "FIG. 5", "text": "as §1\nCorticosterone and insulin were measured using the following procedures. For serum preparation, tail bleedings were carried out under a heating lamp, and the blood was collected into MICROTAINER™ Brand Tubes (Becton Dickinson, Franklin Lanes, N.J.). After allowing the blood to clot for 30-40 min, samples were centrifuged for 90 sec at 6000 g and stored at −80° C. until use. Serum corticosterone levels were measured using an enzyme immunoassay kit (Assay Designs, Inc., Ann Arbor, Mich.) with a 1 μl aliquot of each sample diluted 1:100 with assay buffer. The sensitivity of the assay was 26.99 pg/ml. Serum insulin levels were determined using the Ultra Sensitive Rat Insulin ELISA kit (Crystal Chem, Inc., Downers Grove, Ill.) using 5 μl of undiluted sample and mouse insulin standard. The sensitivity of the assay under these conditions was 100 pg/ml. All samples were measured in duplicate for both assays. Plates were read using the Bio-Tek ELx800UV Universal Microplate Reader.\nThe following supplemented diet was used. Tablets of rosiglitazone maleate (Avandia™, GlaxoSmithKline) were provided by the Creighton University Diabetes Center. […]"}, "[3]": {"assay": "Body weights and food consumption on rosiglitazone-supplemented diet (tolerability)", "format": "in vivo, mouse", "text": "as §1\nThe following supplemented diet was used. Tablets of rosiglitazone maleate (Avandia™, GlaxoSmithKline) were provided by the Creighton University Diabetes Center. The tablets were pulverized and mixed with the AIN-93G purified rodent diet at a final dose of 30 mg/kg of food (Dyets, Inc.). This dose was chosen based on the results of studies in rats using a diet supplemented with rosiglitazone (Diep et al., “Structure, Endothelial Function, Cell Growth, and Inflammation in Blood Vessels of Angiotensin II-Infused Rats: Role of Peroxisome Proliferator-Activated Receptor-γ,” Circulation, 105:2296-2302 (2002), which is hereby incorporated by reference. Unmodified AIN-93G pellets were purchased as the control diet (Dyets, Inc.). The mice were placed on the diets at 9 months of age.\nTo provide evidence for a relationship between insulin resistance and aberrant stress responses of Tg2576 mice, the animals were subjected to a diet containing the thiazolidinedione, rosiglitazone, in order to increase insulin sensitivity. The thiazolidinediones act as agonists of peroxisome proliferator-activated receptor-γ (“PPARγ”), which is a ligand-inducible transcription factor that regulates glucose and lipid metabolism (Desvergne et al., “Peroxisome Proliferator-Activated Receptors: Nuclear Control of Metabolism,” Endocr. Rev., 20:649-688 (1999), which is hereby incorporated by reference). The agonists of PPARγ attenuate insulin resistance by improving peripheral insulin sensitivity, and such agonists are currently being used clinically in the management of type 2 diabetes (Wagstaff et al., “Rosiglitazone: A Review of its Use in the Management of Type 2 Diabetes Mellitus,” Drugs 62:1805-1837 (2002), which is hereby incorporated by reference). […] More particularly, the following Table 1 summarizes body weights and food consumption for wild-type mice on the regular diet (Wt; n=7), Tg2576 mice on the diet supplemented with rosiglitazone maleate (Tr, AV; n=7), and for Tg2576 mice on the regular diet (Tr, C; n=5). Data are reported as means and standard deviations for the indicated weeks."}, "Tg2576 mice [4]": {"tested_on": "Tg2576 mice", "format": "in vivo", "text": "as §1\nThe following supplemented diet was used. Tablets of rosiglitazone maleate (Avandia™, GlaxoSmithKline) were provided by the Creighton University Diabetes Center. The tablets were pulverized and mixed with the AIN-93G purified rodent diet at a final dose of 30 mg/kg of food (Dyets, Inc.). […]"}, "Tg2576 mice [5]": {"tested_on": "Tg2576 mice", "assay": "Spatial learning and memory, 8-arm radial maze", "conditions": "15 weeks on drug-supplemented diet, approximately 4 mg/kg/day, FIG. 6"}, "[6]": {"conditions": "10-month-old Tg2576 mice, supplemented diet 4 weeks"}}}
{"smiles": "CN(CCOc1ccc(CC2SC(=O)NC2=O)cc1)c1ccccn1.O=C(O)/C=C\\C(=O)O", "note": "(centres unmarked) [rosiglitazone, rosiglitazone maleate]", "values": [{"measurement": "Insulin response of Tg2576 mice on unsupplemented diet versus Tg2576 mice on supplemented diet", "setting": "Tg2576 mice [1]; 10-month-old Tg2576 mice, 4 weeks on diet, insulin 0.75 U/kg", "result": "much weaker insulin response"}, {"measurement": "Effect on insulin response (figure legend)", "setting": "Tg2576 mice [1]; FIGS. 4A and 4B, Tg2576 mice, supplemented diet for 4 weeks", "result": "normalizes the insulin response"}, {"measurement": "Serum corticosterone levels after overnight fasting versus wild-type mice", "setting": "Tg2576 mice [2]; [6]", "result": "not significantly different"}, {"measurement": "Serum corticosterone levels following overnight fasting versus Tg2576 mice on regular diet", "setting": "Tg2576 mice [2]; [6]", "result": "well below the levels reached in Tg2576 mice on the regular diet"}, {"measurement": "Effect on stress response (figure legend)", "setting": "Tg2576 mice [2]; Tg2576 mice", "result": "normalizes the stress response"}, {"measurement": "Tolerability of the diet containing rosiglitazone", "setting": "[3]; mice, diet 30 mg/kg of food", "result": "well tolerated"}, {"measurement": "Amount of rosiglitazone-supplemented food consumed over time", "setting": "[3]; mouse, in vivo", "result": "decreased over time"}, {"measurement": "Weight of mice, Week 1", "setting": "[3]; mouse, in vivo", "result": "26.3 ± 3.2", "unit": "g"}, {"measurement": "Weight of mice, Week 4", "setting": "[3]; mouse, in vivo", "result": "26.2 ± 3.1", "unit": "g"}, {"measurement": "Weight of mice, Week 7", "setting": "[3]; mouse, in vivo", "result": "27.1 ± 3.3", "unit": "g"}, {"measurement": "Deaths in the course of the study", "setting": "Tg2576 mice [4]; 7 Tg2576 mice on rosiglitazone-supplemented diet (2 of 7 on unsupplemented diet died)", "result": "None"}, {"measurement": "Observed behaviour on handling", "setting": "Tg2576 mice [4]; Tg2576 mice on rosiglitazone-supplemented diet", "result": "calmer and easier to handle"}, {"measurement": "Number of reference memory errors versus control Tg2576 mice (Tr,C)", "setting": "Tg2576 mice [5]", "result": "fewer than the number of reference memory errors made by Tg2576 not given the drug"}, {"measurement": "Number of reference memory errors versus wild-type mice", "setting": "Tg2576 mice [5]", "result": "as many reference memory errors as the wild-type mice"}]}
